The text below walks through data of ChEMBL document CHEMBL1201862, “PubChem BioAssay data set” (2004).

Some test systems named below: SK-OV-3; SN12C; Hs-578T; TK-10; MCF7; OVCAR-3; HCT-15; SF-295; RPMI-8226; MDA-MB-231; SR; MOLT-4; A498; LOX IMVI; M14; UACC-257; OVCAR-5; SK-MEL-28; MDA-N; IGROV-1.
What all share (experiment): growth of human tumour cells (NCI), 48 h

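Exposure lasted 48 hours, with cells grown in 96-well plates and compounds tested at five concentrations. GI50 is the concentration that inhibits growth by half.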 Activity calls are given as the source filed them. Cut-off read from the data, not from the text of the source: active = GI50 up to about 1.1 µM and inactive = higher.

For `CN(C)c1ccc(/C=C/c2ccnc3ccccc23)cc1N`, the GI50 was 15.2 µM (inactive) with SK-OV-3; 14.8 µM (inactive) in the experiment on SN12C; 15.3 µM (inactive) in the experiment with Hs-578T; 5.16 µM (inactive) in the experiment with TK-10; 1.57 µM (inactive) in the experiment with MCF7; 2.32 µM (inactive) in the experiment with OVCAR-3. Further, the GI50 was 6.24 µM in the experiment with HCT-15; 11 µM (inactive) in the experiment on SF-295; 2.52 µM (inactive) in the experiment on RPMI-8226; 4.04 µM (inactive) in the experiment on MDA-MB-231; 2.21 µM (inactive) in the experiment on SR; 5.64 µM (inactive) with MOLT-4. Further, the GI50 with A498 was 10.4 µM (inactive); in the experiment on LOX IMVI, 7.41 µM (inactive); with M14, 10.6 µM (inactive); in the experiment on UACC-257, 2.42 µM (inactive); in the experiment with OVCAR-5, 13.7 µM (inactive); with SK-MEL-28 it was 13 µM (inactive). For the same molecule, the GI50 with MDA-N was 3.1 µM (inactive).

As for `O=C(c1ccccc1)c1sc2c(=O)c(C(=O)c3ccccc3)c(C(=O)c3ccccc3)sc2c(=O)c1C(=O)c1ccccc1`, the GI50 in the experiment on SK-OV-3 is 37.8 µM (inactive); in the experiment on SN12C, 54.8 µM (inactive); in the experiment on Hs-578T, 77.6 µM (inactive); in the experiment with TK-10, 64.3 µM (inactive); with MCF7, 23.7 µM (inactive); in the experiment on OVCAR-3, 98.6 µM (inactive). In addition, the GI50 is 35 µM with HCT-15; 96.6 µM (inactive) in the experiment on SF-295; > 100 µM (inactive) with MDA-MB-231; 4.88 µM (inactive) with SR; 20.7 µM (inactive) in the experiment with MOLT-4; > 100 µM (inactive) with A498. Further, the GI50 in the experiment on IGROV-1 is 15.6 µM (inactive); in the experiment on LOX IMVI, 25.1 µM (inactive); with M14, 31.5 µM (inactive); with UACC-257 it was > 100 µM (inactive); in the experiment on OVCAR-5, > 100 µM (inactive); in the experiment with SK-MEL-28 it was > 100 µM (inactive). Moreover, the GI50 in the experiment on MDA-N is 32.2 µM (inactive).

For the molecule `CCCc1[nH]nc(C(N)=O)c1/N=N/N(C)C`, the GI50 with SK-OV-3 is 59.7 µM (inactive); with SN12C, 48.3 µM (inactive); in the experiment with Hs-578T, 50 µM (inactive); in the experiment on TK-10, 67.5 µM (inactive); with MCF7 it was 20.1 µM (inactive); with OVCAR-3 it was > 100 µM (inactive). Moreover, the GI50 is 50.4 µM with HCT-15; 57.9 µM (inactive) in the experiment on SF-295; 39.4 µM (inactive) in the experiment with RPMI-8226; > 100 µM (inactive) in the experiment with MDA-MB-231; 10.5 µM (inactive) with SR; 15 µM (inactive) with MOLT-4. The GI50 is 71.6 µM (inactive) in the experiment on A498; 28.5 µM (inactive) in the experiment on IGROV-1; 47 µM (inactive) in the experiment with LOX IMVI; > 100 µM (inactive) with M14; > 100 µM (inactive) in the experiment with UACC-257; > 100 µM (inactive) in the experiment on SK-MEL-28. Also, in the experiment on MDA-N, the GI50 was > 100 µM (inactive).

As for `CN1C(=O)CN(NC(=O)C2=C(O)c3ccc(Br)cc3S(=O)(=O)N2)C1=S`, the GI50 in the experiment on SK-OV-3 was > 100 µM (inactive); in the experiment on SN12C it was > 100 µM (inactive); with Hs-578T it was > 100 µM (inactive); in the experiment with TK-10, > 100 µM (inactive); with MCF7, 53.7 µM (inactive); with HCT-15, above 100 µM. Besides, the GI50 in the experiment on SF-295 is > 100 µM (inactive); in the experiment on RPMI-8226 it was > 100 µM (inactive); in the experiment on MDA-MB-231, > 100 µM (inactive); in the experiment on SR, 46.1 µM (inactive); in the experiment with MOLT-4, > 100 µM (inactive); in the experiment on A498, > 100 µM (inactive). Further, the GI50 in the experiment with IGROV-1, in the experiment with LOX IMVI, in the experiment with M14, in the experiment with UACC-257, in the experiment on OVCAR-5 and in the experiment on SK-MEL-28 was > 100 µM (inactive) each time. In addition, in the experiment with MDA-N, the GI50 is 45.3 µM (inactive).

For `COP(=N[Si](C)(C)C)(OC)OC`, the GI50 in the experiment with SK-OV-3, in the experiment with SN12C, in the experiment with Hs-578T, in the experiment with TK-10, with MCF7 and in the experiment with OVCAR-3 was > 100 µM (inactive) throughout. For the same molecule, the GI50 in the experiment on HCT-15 is above 100 µM; in the experiment on RPMI-8226, > 100 µM (inactive); with MDA-MB-231 it was > 100 µM (inactive); in the experiment on SR, > 100 µM (inactive); in the experiment on MOLT-4 it was > 100 µM (inactive); with A498, > 100 µM (inactive). The GI50 in the experiment on IGROV-1, in the experiment with LOX IMVI, with M14, in the experiment with UACC-257, in the experiment on OVCAR-5 and in the experiment on SK-MEL-28 was > 100 µM (inactive) throughout. Further, the GI50 in the experiment with MDA-N is > 100 µM (inactive).

In the case of `Clc1ccc(/C(=C/c2ccccc2)Cn2ccnc2)cc1`, the GI50 with SK-OV-3 is 19.1 µM (inactive); in the experiment with SN12C it was 22.1 µM (inactive); with Hs-578T, 44.5 µM (inactive); with TK-10, 56.1 µM (inactive); in the experiment with MCF7 it was 20.4 µM (inactive); in the experiment with HCT-15 it was 20.2 µM. Also, the GI50 is 12.7 µM (inactive) with SF-295; 18.2 µM (inactive) in the experiment on RPMI-8226; 30.2 µM (inactive) in the experiment with MDA-MB-231; 19.8 µM (inactive) in the experiment with SR; 13.6 µM (inactive) in the experiment with MOLT-4; 22.6 µM (inactive) in the experiment on A498. Also, the GI50 in the experiment on IGROV-1 was 17.9 µM (inactive); with LOX IMVI, 19.2 µM (inactive); with M14, 21.9 µM (inactive); in the experiment on UACC-257, 30.5 µM (inactive); in the experiment on OVCAR-5 it was 44.9 µM (inactive); with SK-MEL-28, 30.1 µM (inactive). In the experiment on MDA-N, the GI50 is 16.8 µM (inactive).

As for `Cc1ccc(SCC(CF)OCn2cc(F)c(=O)[nH]c2=O)cc1` (centres undefined), the GI50 in the experiment with SK-OV-3 is > 100 µM (inactive); in the experiment on Hs-578T it was > 100 µM (inactive); with TK-10 it was > 100 µM (inactive); in the experiment with MCF7 it was > 100 µM (inactive); in the experiment on OVCAR-3 it was > 100 µM (inactive); in the experiment on HCT-15 it was above 100 µM. Besides, the GI50 in the experiment on SF-295, in the experiment on RPMI-8226, in the experiment on MDA-MB-231, in the experiment with SR, in the experiment on MOLT-4 and with A498 was > 100 µM (inactive) each time. Moreover, the GI50 in the experiment on IGROV-1, in the experiment with LOX IMVI, in the experiment with M14, in the experiment with UACC-257, with OVCAR-5 and in the experiment on SK-MEL-28 was > 100 µM (inactive) each time. Also, the GI50 with MDA-N is > 100 µM (inactive).

On to `CCOC(=O)[C@@H]1ON2OC(OC3CCCC3(c3ccccc3)c3ccccc3)C(OC(C)=O)[C@H]3OC(=O)[C@@H]1C32` (some centres undefined), for which the GI50 was > 100 µM (inactive) with SK-OV-3; > 100 µM (inactive) with SN12C; > 100 µM (inactive) in the experiment with Hs-578T; > 100 µM (inactive) in the experiment on TK-10; 21.3 µM (inactive) with MCF7; 30.5 µM (inactive) with OVCAR-3. Moreover, the GI50 with HCT-15 is above 100 µM; in the experiment with SF-295, 31.6 µM (inactive); with RPMI-8226, > 100 µM (inactive); in the experiment with MDA-MB-231, > 100 µM (inactive); with SR, > 100 µM (inactive); in the experiment on MOLT-4, 43.3 µM (inactive). Further, the GI50 with A498 is > 100 µM (inactive); in the experiment on IGROV-1 it was > 100 µM (inactive); in the experiment with LOX IMVI, 22.1 µM (inactive); in the experiment on M14 it was 95.7 µM (inactive); with UACC-257 it was 52.5 µM (inactive); in the experiment on SK-MEL-28, > 100 µM (inactive). For the same molecule, the GI50 in the experiment with MDA-N is > 100 µM (inactive).

`NC1NCCC(=O)N1CCc1c[nH]c2ccccc12` (centres undefined): the GI50 in the experiment on SK-OV-3 was > 100 µM (inactive); with SN12C it was 27.2 µM (inactive); in the experiment on Hs-578T, 23.4 µM (inactive); in the experiment on TK-10, 25.9 µM (inactive); with MCF7, 15.5 µM (inactive); in the experiment on OVCAR-3 it was 20.9 µM (inactive). Besides, the GI50 is 19.5 µM in the experiment on HCT-15; 24.5 µM (inactive) in the experiment with SF-295; 37.2 µM (inactive) in the experiment with RPMI-8226; 13.2 µM (inactive) in the experiment with MDA-MB-231; 29 µM (inactive) in the experiment with SR; 12.7 µM (inactive) in the experiment with A498. The GI50 is 25.4 µM (inactive) in the experiment with IGROV-1; 12.9 µM (inactive) with LOX IMVI; 19.2 µM (inactive) with M14; 17.8 µM (inactive) in the experiment with UACC-257; 23.6 µM (inactive) in the experiment on OVCAR-5; 19.3 µM (inactive) in the experiment on SK-MEL-28. Also, the GI50 in the experiment with MDA-N is 17.6 µM (inactive).

On to `CC(=O)Nc1cccc(N2C(=O)/C(=C\c3cccc(Oc4ccccc4)c3)SC2c2ccccc2)c1` (centres undefined), for which the GI50 in the experiment with SK-OV-3 was 76 µM (inactive); in the experiment on SN12C, > 100 µM (inactive); in the experiment with Hs-578T, 60 µM (inactive); in the experiment on TK-10 it was 97.5 µM (inactive); in the experiment with MCF7, 36.4 µM (inactive); in the experiment on OVCAR-3, 50.7 µM (inactive). Also, the GI50 in the experiment with HCT-15 is above 100 µM; with SF-295, > 100 µM (inactive); with RPMI-8226, 30.3 µM (inactive); in the experiment on MDA-MB-231, > 100 µM (inactive); with SR, 17.2 µM (inactive); with MOLT-4 it was 26.5 µM (inactive). Also, the GI50 with A498 was > 100 µM (inactive); in the experiment with LOX IMVI, 37.8 µM (inactive); in the experiment on M14 it was > 100 µM (inactive); with UACC-257, > 100 µM (inactive); with OVCAR-5, > 100 µM (inactive); in the experiment with SK-MEL-28, 79.1 µM (inactive). The GI50 in the experiment on MDA-N was 28.1 µM (inactive).

As to `O=S(=O)(O)c1ccc2c(/N=N\c3cccc4ccccc34)c(O)c(S(=O)(=O)O)cc2c1`, the GI50 in the experiment on SK-OV-3 is > 100 µM (inactive); in the experiment on Hs-578T, > 100 µM (inactive); with TK-10, > 100 µM (inactive); in the experiment on MCF7, > 100 µM (inactive); in the experiment on OVCAR-3 it was > 100 µM (inactive); in the experiment on HCT-15, above 100 µM. Also, the GI50 in the experiment on SF-295 is > 100 µM (inactive); with RPMI-8226, > 100 µM (inactive); in the experiment on MDA-MB-231, > 100 µM (inactive); in the experiment on SR, > 48.6 µM (inactive); in the experiment on MOLT-4 it was > 100 µM (inactive); with A498, > 100 µM (inactive). Moreover, the GI50 in the experiment on IGROV-1, in the experiment with LOX IMVI, in the experiment with M14, with UACC-257, with OVCAR-5 and in the experiment with SK-MEL-28 was > 100 µM (inactive) in each case. In addition, the GI50 in the experiment on MDA-N is > 100 µM (inactive).
